In patent US20090030079A1 (priority 2007, published 2009):
Like-named read-outs stand apart in the source and are kept apart here.

What was measured:
[1] = Decorporation of Cobalt-60: tissue distribution and excretion of IV administered Co-60 in rats; type: in vivo, Male Wistar-Han rats; conditions: single oral dose 15 mg/kg; for Co-60 Dose % for animal group: single IV Co-60 14 KBq, 48 hr post exposure
Procedure: Materials. Chloride stock solution of ^60Co as ^60CoCl2 was diluted with sterile saline solution to adjust to the desired activity and used for the IV dosing. Activity of the dosing solution was determined using automated Wallac 1480 (Perkin Elmer) gamma counter equipped with 3 inch NaI(TI) crystal shielded detector.
Animals. Male Wistar-Han rats were obtained from Charles River Breeding Laboratory (Raleigh, N.C.) with indwelling jugular vein cannula. Animals were provided food and water ad libitum during acclimatization. The light cycle was 12 hour light/12 hour dark and relative humidity and temperature maintained at 50±15% and 22±2° C. All animal use protocols were approved by the Institutional Animal Care and Use Committee at Battelle, Pacific Northwest Division and studies were performed according to the “Guide for the Care and Use of Laboratory Animals” (National Research Council, Washington D.C., 1996).
Dosing regimen. Animals were restricted from food overnight prior to exposure. At the time of exposure, groups of animals (N=6) received a single intravenous (IV) injection (0.2 mL) of ^60Co solution at 14.0±0.6 KBq dose in sterile saline via an indwelling jugular vein cannula. […] The actual doses delivered were calculated based on the individual animal weights (Table 3). One group of animals was dosed with the radionuclide without subsequent administration of the chelation material to serve as control group. Following dosing, animals were placed in Nalgene metabolism cages for separate collection of urine and feces. […] Animals were sacrificed 48 hr post radionuclide administration. At sacrifice, blood and tissues (liver, kidney, spleen, gastrointestinal tract, muscle, bone, bone marrow, and lung) were collected, weighed and counted for radioactivity using a Wallac 1480 gamma counter. Gamma count data were normalized to percent administered dose after adjusting the grams of tissue collected for total organ mass.
Data statistical evaluation. Each data group was subjected to Dixon's Q-test to evaluate for potential outliers. In this test Q parameter of 0.625 (N=6, 95% confidence level, a=0.05) was used (1). For each tissue, a preliminary F-test (95% confidence level, a=0.05) for the equality of variances of the control and each treatment group was performed using Excel software. If the calculated probability p value was less than 0.05, the variances were assumed to be not equal. Based on this information, “T-test: Two-Sample Assuming Unequal Variances” or “T-test: Two-Sample Assuming Equal Variances” (95% confidence level, a=0.05) was performed using Excel software. The calculated p-value less than 0.05 provides evidence to reject the null hypothesis of equal means. The obtained statistical parameters listed in Table 4 served as guidelines for data evaluation (Table 5; calculation assumes that total skeleton, blood, or muscle is approximately 7.3, 6, or 40% of the body weight of the animal, respectively; Co-60 in skeleton is calculated based on the femur data—R. P. Brown, M. D. Delp, S. L. Undstedt, L. R. Rhomberg, and R. P. Beliles, Physiological Parameter Values for Physiologically Based Pharmacokinetic Models. Toxicology and Industrial Health, 1997, 13(4): 407-484).

[2] = Decorporation of Polonium-210: tissue distribution of IV administered Po-210 in rats; type: in vivo, Wistar-Han rats; conditions: for % Reduction of Po-210 vs Po-210 Control / effect on polonium-210 level (in words): oral 15 mg/kg x 5, day 6; for Po-210 dpm/gm for animal group: single IV Po-210 approx. 90 kBq, oral 15 mg/kg every 24 h x 5, sacrifice day 6
Procedure: The digested sample was diluted with distilled water to reduce the nitric acid to approximately 1 M. An aliquot of the resulting solution was added to Ultima Gold XR liquid scintillation cocktail (Packard BioScience, Meriden, Conn.), counted and corrected for possible quenching.

[3] = Cu^2+, cited from earlier work
[4] = Hg^2+, cited from earlier work
[5] = Ni^2+, cited from earlier work
[6] = Zn^2+, cited from earlier work
[7] = Cd^2+, cited from earlier work
[8] = Co^2+, cited from earlier work
[9] = Pb^2+, cited from earlier work
[10] = Ag^1+; cited from earlier work
[11] = Pd^2+, cited from earlier work
[12] = Bi^3+, cited from earlier work
[13] = Cr^2+; cited from earlier work
[14] = Fe^2+; cited from earlier work
[15] = Mn^2+; cited from earlier work

Structure (SMILES): NCCNCCNCCN [Trientine, N,N′-bis (2-aminoethyl)-1,2-ethanediamine]
- Co-60 Dose % for animal group ([1]; Blood): 0.18 ± 0.08%
- % Reduction of Co-60 vs Co-60 Control ([1]; Blood, 48 hr): −98%
- Co-60 Dose % for animal group ([1]; Bone Marrow): Below detection
- Co-60 Dose % for animal group ([1]; Intestine): 0.98 ± 0.23%
- % Reduction of Co-60 vs Co-60 Control ([1]; Intestine, 48 hr): 44%
- Co-60 Dose % for animal group ([1]; Kidney): 0.62 ± 0.04%
- % Reduction of Co-60 vs Co-60 Control ([1]; Kidney, 48 hr): 13%
- Co-60 Dose % for animal group ([1]; Liver): 2.00 ± 0.47%
- % Reduction of Co-60 vs Co-60 Control ([1]; Liver, 48 hr): 0%
- Co-60 Dose % for animal group ([1]; Lung): 0.13 ± 0.05%
- % Reduction of Co-60 vs Co-60 Control ([1]; Lung, 48 hr): 0%
- Co-60 Dose % for animal group ([1]; Muscle): 1.13 ± 0.24%
- % Reduction of Co-60 vs Co-60 Control ([1]; Muscle, 48 hr): 0%
- Co-60 Dose % for animal group ([1]; Spleen): 0.058 ± 0.013%
- % Reduction of Co-60 vs Co-60 Control ([1]; Spleen, 48 hr): 0%
- Co-60 Dose % for animal group ([1]; Stomach): 0.072 ± 0.012%
- % Reduction of Co-60 vs Co-60 Control ([1]; Stomach, 48 hr): 0%
- Co-60 Dose % for animal group ([1]; Total Skeleton (from femur data)): 0.41 ± 0.22%
- % Reduction of Co-60 vs Co-60 Control ([1]; Total Skeleton, 48 hr): 35%
- effect on blood levels of Co-60 ([1]; 48 hr): elevated
- effect on fecal elimination of Co-60 ([1]; day 1 post exposure): decreased
- effect on urinary elimination of Co-60 ([1]; day 1 post exposure): noticeably enhanced
- effect on total Co-60 excretion (urine and feces) ([1]; monitored 2 days, not statistically significant, 15 mg/kg): appeared to accelerate
- % Reduction of Po-210 vs Po-210 Control ([2]; Blood): 0%
- Po-210 dpm/gm for animal group ([2]; Blood): 33273 ± 7289 dpm/gm
- Po-210 dpm/gm for animal group ([2]; Femur): 22415 ± 2148 dpm/gm
- % Reduction of Po-210 vs Po-210 Control ([2]; Kidney): 0%
- Po-210 dpm/gm for animal group ([2]; Kidney): 187883 ± 15839 dpm/gm
- % Reduction of Po-210 vs Po-210 Control ([2]; Liver): 14%
- effect on polonium-210 level (in words) ([2]; Liver): reduced
- Po-210 dpm/gm for animal group ([2]; Liver): 120883 ± 21221 dpm/gm
- % Reduction of Po-210 vs Po-210 Control ([2]; Lung): 11%
- Po-210 dpm/gm for animal group ([2]; Lung): 74512 ± 22281 dpm/gm
- Po-210 dpm/gm for animal group ([2]; Spleen): 269303 ± 47082 dpm/gm
- % Reduction of Po-210 vs Po-210 Control ([2]; femur): 15%
- effect on polonium-210 level (in words) ([2]; femur): reduced
- % Reduction of Po-210 vs Po-210 Control ([2]; spleen): 36%
- effect on polonium-210 level (in words) ([2]; spleen): reduced
- binding stability constant (log K) [3]: 20.05 (Cu^2+)
- binding stability constant (log K) ([3]; listed as trientine): very strongly
- binding stability constant (log K) [4]: 24.5
- binding stability constant (log K) ([4]; listed as trientine): very strongly
- binding stability constant (log K) [5]: 13.8
- binding stability constant (log K) ([5]; listed as trientine): very strongly
- binding stability constant (log K) [6]: 12
- binding stability constant (log K) ([6]; listed as trientine): fairly strong
- binding stability constant (log K) [7]: 10.6
- binding stability constant (log K) ([7]; listed as trientine): fairly strong
- binding stability constant (log K) [8]: 10.9
- binding stability constant (log K) ([8]; listed as trientine): fairly strong
- binding stability constant (log K) [9]: 10.4
- binding stability constant (log K) ([9]; listed as trientine): fairly strong
- binding stability constant (log K) [10]: 7.5
- binding stability constant (log K) [11]: 39.4
- binding stability constant (log K) ([11]; listed as trientine): very strongly
- binding stability constant (log K) [12]: 21.9
- binding stability constant (log K) ([12]; listed as trientine): very strongly
- binding stability constant (log K) [13]: 7.9
- binding stability constant (log K) [14]: 7.76
- binding stability constant (log K) [15]: 4.90
